Values of other authors in US20070231316A1, “Treatment of Cognitive Dysfunction in Lupus” (priority 2003, published 2007).

Experiments:
[1] = NP-SLE patients, after treatment
[2] = in vivo

Row | Compound | GFAP level in CSF [1] | NFL level in CSF [1] | effect on blood-brain barrier [2]
1 | O=P1(N(CCCl)CCCl)NCCCO1 (stereo not drawn) [cyclophosphamide] | marked decline | marked decline | –
2 | lipopolysaccharide [LPS] | – | – | temporary opening of the blood-brain barrier
